This passage reports Ki and IC50 results from patent US10988477B2 (Merck Patent GmbH, priority 2018, dated 2021).

For assay [1], the target named is GCN2 kinase (Homo sapiens, UniProt Q9P2K8). The experiment in a line: GCN2 enzyme inhibition assay (Transcreener ADP2 fluorescence polarization). The assay is classed as biochemical. Conditions: 280 μM ATP. Summed up: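 Kinase activity is followed as ADP formation, measured by fluorescence polarization, using 4 nM enzyme with 280 μM ATP and 200 μM (RS)7 peptide at pH 7.5 and 25 °C for 1 h. Values come from a non-linear tight-binding fit.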
Sequence of GCN2 kinase (Q9P2K8 whole entry): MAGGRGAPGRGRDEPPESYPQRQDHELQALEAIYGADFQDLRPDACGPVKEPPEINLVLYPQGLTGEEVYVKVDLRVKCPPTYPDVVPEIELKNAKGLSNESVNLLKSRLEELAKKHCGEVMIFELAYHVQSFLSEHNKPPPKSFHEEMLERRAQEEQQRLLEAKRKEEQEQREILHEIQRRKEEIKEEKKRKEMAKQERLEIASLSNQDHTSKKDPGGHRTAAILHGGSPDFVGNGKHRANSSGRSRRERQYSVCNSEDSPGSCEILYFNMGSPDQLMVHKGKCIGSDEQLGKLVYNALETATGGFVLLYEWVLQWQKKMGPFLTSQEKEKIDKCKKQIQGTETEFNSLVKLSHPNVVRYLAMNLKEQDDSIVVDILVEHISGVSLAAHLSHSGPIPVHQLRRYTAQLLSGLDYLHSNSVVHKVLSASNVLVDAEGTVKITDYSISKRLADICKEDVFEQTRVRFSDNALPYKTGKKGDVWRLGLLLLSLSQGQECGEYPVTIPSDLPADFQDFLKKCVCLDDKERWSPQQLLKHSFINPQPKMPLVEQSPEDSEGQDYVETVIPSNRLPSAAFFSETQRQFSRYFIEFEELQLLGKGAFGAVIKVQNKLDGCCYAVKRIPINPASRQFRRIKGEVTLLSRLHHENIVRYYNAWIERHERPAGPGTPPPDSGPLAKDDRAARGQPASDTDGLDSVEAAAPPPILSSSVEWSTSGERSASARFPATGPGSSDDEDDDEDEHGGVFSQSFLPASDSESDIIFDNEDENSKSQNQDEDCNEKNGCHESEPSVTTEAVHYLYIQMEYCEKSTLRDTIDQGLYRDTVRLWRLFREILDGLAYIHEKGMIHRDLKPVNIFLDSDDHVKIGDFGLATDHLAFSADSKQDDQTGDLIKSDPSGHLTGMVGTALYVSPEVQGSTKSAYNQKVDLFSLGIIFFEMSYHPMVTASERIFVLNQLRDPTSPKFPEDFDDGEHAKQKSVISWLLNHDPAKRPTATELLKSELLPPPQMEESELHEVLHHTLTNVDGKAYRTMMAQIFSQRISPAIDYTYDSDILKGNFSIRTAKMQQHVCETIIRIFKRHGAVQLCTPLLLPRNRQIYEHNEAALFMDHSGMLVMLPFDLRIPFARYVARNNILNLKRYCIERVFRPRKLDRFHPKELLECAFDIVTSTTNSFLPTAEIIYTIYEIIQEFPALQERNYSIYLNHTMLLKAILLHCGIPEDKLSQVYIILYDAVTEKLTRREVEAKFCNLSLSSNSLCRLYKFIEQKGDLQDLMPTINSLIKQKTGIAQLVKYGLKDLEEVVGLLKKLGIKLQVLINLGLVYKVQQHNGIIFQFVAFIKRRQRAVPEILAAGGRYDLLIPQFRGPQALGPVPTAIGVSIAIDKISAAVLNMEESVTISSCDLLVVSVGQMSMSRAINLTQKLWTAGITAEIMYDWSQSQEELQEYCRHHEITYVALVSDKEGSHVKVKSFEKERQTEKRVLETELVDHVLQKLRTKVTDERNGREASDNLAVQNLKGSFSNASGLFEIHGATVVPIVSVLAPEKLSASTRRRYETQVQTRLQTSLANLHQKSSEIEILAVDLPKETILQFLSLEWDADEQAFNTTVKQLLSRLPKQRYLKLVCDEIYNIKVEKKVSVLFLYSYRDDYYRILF
Background: Fluorescence polarisation rises when a labelled molecule tumbles more slowly, as on binding a larger partner.

The target of assay [2] is intracellular GCN2 (phosphorylation of the GCN2 substrate eIF2α) (Homo sapiens, UniProt Q9P2K8). The assay can be described thus: GCN2 cellular inhibition assay (AlphaScreen SureFire P-eIF2α Ser51, borrelidin-treated U2OS cells). Conditions: biomarker assay, phosphorylated eIF2α Ser51 in borrelidin-treated U2OS cells. The assay is classed as cell-based. The essentials:
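U2OS, overnight attach; cpd 4-fold serial dil. from 40 μM final; borrelidin 10 μM, 1 h 37 °C/5% CO2; lyse; AlphaScreen P-eIF2α Ser51 (acceptor 2 h, donor overnight, RT, dark); % inhib. vs borrelidin-only.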

The mark [3] stands for this setting: Enzyme activity for compounds of Formula IV, Ki(app), 25° C.
[4] abbreviates: compounds of Formula II, 4 nM GCN2 kinase.

By IC50 is commonly meant the midpoint of a concentration-inhibition curve. The low end stands for greater potency, the high end for weaker potency.

Sequence of intracellular GCN2 (phosphorylation of the GCN2 substrate eIF2α) (Q9P2K8 whole entry): as above

In the case of `NS(=O)(=O)C1CCCN(c2ccnc(-c3cnc4cnc(C(F)F)cn34)n2)C1` (stereo not drawn) [IV-177, 1-(2-(6-(Difluoromethyl)imidazo[1,2-a]pyrazin-3-yl)pyrimidin-4-yl)piperidine-3-sulfonamide], the Ki in assay [1] (setting [3]) is 100 to 1000 nM. The IC50 in assay [2] (compounds of Formula IV) is above 5000 nM.

As for `NS(=O)(=O)C1CCCN(c2cc(-c3cnc4ccc(C(F)F)nn34)ncn2)C1` (stereo not drawn) [II-376, 1-(6-(6-(Difluoromethyl)imidazo[1,2-b]pyridazin-3-yl)pyrimidin-4-yl)piperidine-3-sulfonamide], in assay [1] (setting [4]), the Ki lay in the range of 10 to 1000 nM. In addition, the IC50 in assay [2] (compounds of Formula II) lay in the range of 500 to 5000 nM.

For the molecule `CS(=O)(=O)NCC1CCCN(c2ccnc(-c3cnc4ccc(C(F)F)nn34)c2)C1` (stereo not drawn) [II-125, N-((1-(2-(6-(Difluoromethyl)imidazo[1,2-b]pyridazin-3-yl)pyridin-4-yl)piperidin-3-yl)methyl)methanesulfonamide], in assay [1] (setting [4]), the Ki was below 10 nM. The molecule further yielded an IC50 in assay [2] (compounds of Formula II) below 500 nM.

For `CCN1CCN(c2cc(-c3cnc4ccc(C(F)F)nn34)ncn2)C(C)C1CNS(C)(=O)=O` (single isomer, unassigned) [II-542, N-((4-(6-(6-(Difluoromethyl)imidazo[1,2-b]pyridazin-3-yl)pyrimidin-4-yl)-1-ethyl-3-methylpiperazin-2-yl)methyl)methanesulfonamide], the Ki in assay [1] (setting [4]) was below 10 nM. For the same molecule, the IC50 in assay [2] (compounds of Formula II) was below 500 nM.

As for `CC(NS(C)(=O)=O)C1CCCN(c2cc(-c3cnc4ccc(C(F)F)nn34)ccn2)C1` (stereo not drawn) [II-133, N-(1-(1-(4-(6-(Difluoromethyl)imidazo[1,2-b]pyridazin-3-yl)pyridin-2-yl)piperidin-3-yl)ethyl)methanesulfonamide], the Ki in assay [1] (setting [4]) is below 10 nM. This molecule came in with an IC50 in assay [2] (compounds of Formula II) of 500 to 5000 nM.

Regarding `CC1(C)CN(c2cc(-c3cnc4ccc(C(F)F)nn34)ncn2)C[C@@H](CNS(C)(=O)=O)O1` [II-403, (S)—N-((4-(6-(6-(Difluoromethyl)imidazo[1,2-b]pyridazin-3-yl)pyrimidin-4-yl)-6,6-dimethylmorpholin-2-yl)methyl)methanesulfonamide], in assay [1] (setting [4]), the Ki was below 10 nM. Moreover, in assay [2] (compounds of Formula II), the IC50 was below 500 nM.

`NC(=O)c1ccc(F)c(-c2ccnc(-c3cnc4cnc(C(F)F)cn34)n2)c1` [IV-176, 3-(2-(6-(Difluoromethyl)imidazo[1,2-a]pyrazin-3-yl)pyrimidin-4-yl)-4-fluorobenzamide] displayed a Ki in assay [1] (setting [3]) of 100 to 1000 nM. In assay [2] (compounds of Formula IV), this molecule showed an IC50 above 5000 nM.

Take `FC(F)c1cn2c(-c3nccc(N4CCC(c5ccccn5)C4)n3)cnc2cn1` (stereo not drawn) [IV-77, 6-(Difluoromethyl)-3-(4-(3-(pyridin-2-yl)pyrrolidin-1-yl)pyrimidin-2-yl)imidazo[1,2-a]pyrazine]: in assay [1] (setting [3]), the Ki lay within 100 to 1000 nM. The IC50 in assay [2] (compounds of Formula IV) was above 5000 nM.

Regarding `FC(F)c1cn2c(-c3nccc(N4CCC(c5cccnc5)C4)n3)cnc2cn1` (stereo not drawn) [IV-76, 6-(Difluoromethyl)-3-(4-(3-(pyridin-3-yl)pyrrolidin-1-yl)pyrimidin-2-yl)imidazo[1,2-a]pyrazine], in assay [1] (setting [3]), the Ki is 100 to 1000 nM. Further, the IC50 in assay [2] (compounds of Formula IV) is above 5000 nM.

For `CC1(C)CN(c2cc(-c3cnc4ccc(C(F)F)nn34)ncn2)CC1CNS(C)(=O)=O` (stereo not drawn) [II-213, N-((1-(6-(6-(Difluoromethyl)imidazo[1,2-b]pyridazin-3-yl)pyrimidin-4-yl)-4,4-dimethylpyrrolidin-3-yl)methyl)methanesulfonamide], the Ki in assay [1] (setting [4]) is below 10 nM. Moreover, the IC50 in assay [2] (compounds of Formula II) fell in the range of 500 to 5000 nM.

In turn, `CS(=O)(=O)NC1CCCN(c2cc(-c3cnc4ccc(C(F)(F)F)nn34)ccn2)C1` (stereo not drawn) [II-231, N-(1-(4-(6-(Trifluoromethyl)imidazo[1,2-b]pyridazin-3-yl)pyridin-2-yl)piperidin-3-yl)methanesulfonamide] gave a Ki in assay [1] (setting [4]) of 10 to 1000 nM. Also, the IC50 in assay [2] (compounds of Formula II) lay in the range of 500 to 5000 nM.

`FC(F)c1ccc2ncc(-c3ccnc(N4CC5(CNC5)C4)c3)n2n1` [II-79, 3-(2-(2,6-Diazaspiro[3.3]heptan-2-yl)pyridin-4-yl)-6-(difluoromethyl)imidazo[1,2-b]pyridazine] displayed a Ki in assay [1] (setting [4]) of 10 to 1000 nM. In assay [2] (compounds of Formula II), this molecule registered an IC50 above 5000 nM.

In assay [1] (setting [4]), `OC[C@H]1CN(c2cc(-c3cnc4ccc(C(F)F)nn34)ncn2)C[C@@H](C(F)(F)F)O1` [II-298, ((2R,6S)-4-(6-(6-(Difluoromethyl)imidazo[1,2-b]pyridazin-3-yl)pyrimidin-4-yl)-6-(trifluoromethyl)morpholin-2-yl)methanol] displayed a Ki of 10 to 1000 nM. The molecule also displayed an IC50 in assay [2] (compounds of Formula II) of 500 to 5000 nM.

`O=C1NCCC12CCCN(c1cc(-c3cnc4ccc(C(F)F)nn34)ccn1)C2` (stereo not drawn) [II-156, 7-(4-(6-(Difluoromethyl)imidazo[1,2-b]pyridazin-3-yl)pyridin-2-yl)-2,7-diazaspiro[4.5]decan-1-one] yielded a Ki in assay [1] (setting [4]) of 10 to 1000 nM. The IC50 in assay [2] (compounds of Formula II) is 500 to 5000 nM.

Molecule `CC1CC(C)(O)C(CNS(C)(=O)=O)CN1c1cc(-c2cnc3ccc(C(F)F)nn23)ncn1` (stereo not drawn) [II-365, N-((1-(6-(6-(Difluoromethyl)imidazo[1,2-b]pyridazin-3-yl)pyrimidin-4-yl)-4-hydroxy-4,6-dimethylpiperidin-3-yl)methyl)methanesulfonamide] yielded a Ki in assay [1] (setting [4]) of 10 to 1000 nM. Also, in assay [2] (compounds of Formula II), the concentration for half-maximal inhibition (IC50) was above 5000 nM.

`FC(F)(F)c1cn2c(-c3nccc(N4CCC=C(c5cnsc5)C4)n3)cnc2cn1` [IV-535, 4-(1-(2-(6-(Trifluoromethyl)imidazo[1,2-a]pyrazin-3-yl)pyrimidin-4-yl)-1,2,5,6-tetrahydropyridin-3-yl)isothiazole] registered a Ki in assay [1] (setting [3]) of 10 to 100 nM. Further, in assay [2] (compounds of Formula IV), the IC50 fell in the range of 500 to 5000 nM.

On to `CC(C)(O)C1CC(c2cn[nH]c2)CN(c2ccnc(-c3cnc4cnc(C(F)(F)F)cn34)n2)C1` (single isomer, unassigned) [IV-684, 2-(5-(1H-Pyrazol-4-yl)-1-(2-(6-(trifluoromethyl)imidazo[1,2-a]pyrazin-3-yl)pyrimidin-4-yl)piperidin-3-yl)propan-2-ol], for which the Ki in assay [1] (setting [3]) is below 10 nM. Also, in assay [2] (compounds of Formula IV), the IC50 was below 500 nM.

In turn, `CS(=O)(=O)N1CCC2(CCN(c3ccnc(-c4cnc5cnc(C(F)F)cn45)n3)C2)CC1` [IV-145, 2-(2-(6-(Difluoromethyl)imidazo[1,2-a]pyrazin-3-yl)pyrimidin-4-yl)-8-(methylsulfonyl)-2,8-diazaspiro[4.5]decane] came in with a Ki in assay [1] (setting [3]) of 100 to 1000 nM. In assay [2] (compounds of Formula IV), the IC50 is above 5000 nM.

In the case of `C[C@H]1CO[C@@H](CNS(C)(=O)=O)CN1c1cc(-c2cnc3ccc(C(F)F)nn23)ncn1` [II-234, N-(((2R,5S)-4-(6-(6-(difluoromethyl)imidazo[1,2-b]pyridazin-3-yl)pyrimidin-4-yl)-5-methylmorpholin-2-yl)methyl)methanesulfonamide], the Ki in assay [1] (setting [4]) is 10 to 1000 nM. The molecule also registered an IC50 in assay [2] (compounds of Formula II) of 500 to 5000 nM.

As for `CP(C)(=O)C1CC(c2cn[nH]c2)CN(c2ccnc(-c3cnc4cnc(C(F)(F)F)cn34)n2)C1` (single isomer, unassigned) [IV-633, (5-(1H-Pyrazol-4-yl)-1-(2-(6-(trifluoromethyl)imidazo[1,2-a]pyrazin-3-yl)pyrimidin-4-yl)piperidin-3-yl)dimethylphosphine oxide], in assay [1] (setting [3]), the Ki fell in the range of 10 to 100 nM. The IC50 in assay [2] (compounds of Formula IV) was above 5000 nM.

`CS(=O)(=O)NC[C@@H]1CN(c2cc(-c3cnc4ccc(C(F)(F)F)nn34)ncn2)CCO1` [II-292, (S)—N-((4-(6-(6-(Trifluoromethyl)imidazo[1,2-b]pyridazin-3-yl)pyrimidin-4-yl)morpholin-2-yl)methyl)methanesulfonamide] displayed a Ki in assay [1] (setting [4]) of 10 to 1000 nM. The molecule also yielded an IC50 in assay [2] (compounds of Formula II) of 500 to 5000 nM.
